Measurements: patent US20250154156A1, “QUINAZOLINE DERIVATIVE AS KRAS G12C MUTATION INHIBITOR” (Shenzhen Forward Pharmaceuticals Co., Limited, priority 2022, published 2025)

Assays:
[1] = tested on: NCI-H358 cells (KRAS G12C mutant cell line); test: Proliferation experiment of NCI-H358 cells (Cell Titer-Glo); format: cell-based; conditions: Homo sapiens, 72 hours, read-out: Test Example 1 IC50
Protocol: (§1) According to the solution described in Cell Titer-Glo Luminescent cell Viability Assay (Promega catalog number #G7570) of Promega Corporation, the number of living cells in the culture was detected. 90 μL of cells (8,000 cells/well) were cultured in a growth medium in a Corning black transparent bottom 96-well plate and were cultured overnight in a 5% CO2 humidified incubator at 37° C. The compound diluted serially in 100% DMSO was added to the cells by a pipette, and the cells were cultured for another 72 hours. 100 μL of the well-mixed Cell Titer-Glo reagent was added to the cells in the 96-well culture plate to lyse the cells and gently mixed. Subsequently, […] was detected on an Envision microplate detector, and the data of each compound was obtained. Finally, the data was input into a suitable software package (such as Prism) for curve fitting analysis.

[2] = tested on: NCI-H23 cells (KRAS G12C mutant cell line); test: Proliferation experiment of NCI-H23 cells (Cell Titer-Glo); format: cell-based; conditions: Homo sapiens, 72 hours, read-out: Test Example 2 IC50
Protocol: Human lung cancer cell line NCI-H23 (ATCC, CRL-5800) was a KRAS G12C mutant cell line.
as §1

[3] = target: Ba/F3 (KRAS-G12C-Y96C) cells (Homo sapiens, UniProt P01116, G12C/Y96C, cells depend on it); test: Proliferation experiment of Ba/F3 (KRAS-G12C-Y96C) cells; format: cell-based; conditions: 72 hours, Cell Titer-Glo, read-out: Test Example 3 IC50
Ba/F3 (KRAS-G12C-Y96C) cells, sequence (P01116 whole entry G12C/Y96C): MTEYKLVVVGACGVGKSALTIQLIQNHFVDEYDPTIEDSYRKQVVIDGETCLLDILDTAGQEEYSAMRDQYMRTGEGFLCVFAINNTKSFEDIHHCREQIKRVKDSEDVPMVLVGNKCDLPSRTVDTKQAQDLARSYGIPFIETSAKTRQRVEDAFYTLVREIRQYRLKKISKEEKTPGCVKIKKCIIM
Protocol: Engineered cell strain Ba/F3 (KRAS-G12C-Y96C) was a cell strain constructed by the inventors according to the methods described in Warmuth M. et al, Curr Opin Oncol. […] The cells were grown at 37° C. in a humidified incubator with […].
as §1, with “(3,000” for “(8,000”, “[…]” for “5%”

[4] = target: Ba/F3 (KRAS-G12C-H95Q) cells (Homo sapiens, UniProt P01116, G12C/H95Q, cells depend on it); test: Proliferation experiment of Ba/F3 (KRAS-G12C-H95Q) cells; format: cell-based; conditions: 72 hours, Cell Titer-Glo, read-out: Test Example 4 IC50
Ba/F3 (KRAS-G12C-H95Q) cells, sequence (P01116 whole entry G12C/H95Q): as the sequence (P01116 whole entry G12C/Y96C) above, with H95Q, C96Y counted along it
Protocol: Engineered cell strain Ba/F3 (KRAS-G12C-H95Q) was a cell strain constructed by the inventors according to the methods described in Warmuth M. et al, Curr Opin Oncol. […] The cells were grown at 37° C. in a humidified incubator with […].
as §1, with “(3,000” for “(8,000”

[5] = target: Ba/F3 (KRAS-G12C-R68S) cells (Homo sapiens, UniProt P01116, G12C/R68S, cells depend on it); test: Proliferation experiment of Ba/F3 (KRAS-G12C-R68S) cells; format: cell-based; conditions: 72 hours, Cell Titer-Glo, read-out: Test Example 5 IC50
Ba/F3 (KRAS-G12C-R68S) cells, sequence (P01116 whole entry G12C/R68S): as the sequence (P01116 whole entry G12C/Y96C) above, with R68S, C96Y counted along it
Protocol: Engineered cell strain Ba/F3 (KRAS-G12C-R68S) was a cell strain constructed by the inventors according to the methods described in Warmuth M. et al, Curr Opin Oncol. […] The cells were grown at 37° C. in a humidified incubator with 5% CO2.
as §1, with “(3,000” for “(8,000”

[6] = target: Ba/F3 (KRAS-G12C-Q99L) cells (Homo sapiens, UniProt P01116, G12C/Q99L, cells depend on it); test: Proliferation experiment of Ba/F3 (KRAS-G12C-Q99L) cells; format: cell-based; conditions: 72 hours, Cell Titer-Glo, read-out: Test Example 6 IC50
Ba/F3 (KRAS-G12C-Q99L) cells, sequence (P01116 whole entry G12C/Q99L): as the sequence (P01116 whole entry G12C/Y96C) above, with C96Y, Q99L counted along it
Protocol: Engineered cell strain Ba/F3 (KRAS-G12C-Q99L) was a cell strain constructed by the inventors according to the methods described in Warmuth M. et al, Curr Opin Oncol. […] The cells were grown at 37° C. in a humidified incubator with 5% CO2.
as §1, with “(3,000” for “(8,000”

[7] = In vitro human liver microsome stability experiment; format: in vitro ADME; conditions: human liver microsomes; for half-life / microsomal CLint: 1 mg/mL microsome protein, NADPH, 37° C.; for microsomal CLint: read-out: CLint(mic); for CLint scaled: scaled to liver
Protocol: Eight 96-well incubation plates were prepared, named [NT], Blank60, and NCF60, respectively. […] No compound to be tested or control compound was added to the Blank60 plate and samples were taken after 60 minutes of incubation. The NCF60 plate, in which a potassium phosphate buffer was used instead of an NADPH regeneration system solution (Sigma, N0505), was incubated for 60 minutes. […] Only the working solution of microsomes was added to the Blank60 plate, and the incubation plates Blank60, T5, T15, T30, T45, and T60 except TO and NCF60 were then placed in a water bath at 37° C. for pre-incubation for about 10 minutes. To the TO plate sample, 600 μL of a stop solution (acetonitrile:methanol (95:5, v/v) solution containing 100 ng/mL tolbutamide (Sigma, T0891)) was added first, and then an NADPH regeneration system working solution was added. 98 μL of a potassium phosphate buffer was added to each well of the NCF60 plate and incubated for 60 minutes. After the pre-incubation in the incubation plates Blank60, T5, T15, T30, T45, and T60 was complete, 98 μL of the NADPH regeneration system working solution was added to each sample well to initiate the reaction. After an appropriate incubation time (such as 5, 15, 30, 45, and 60 minutes), 600 μL of the stop solution was added to each sample well and control sample well in the Blank60, […] the reaction. All the sample plates were shaken evenly and centrifuged at 3220×g for 20 minutes. 200 μL of each test sample supernatant was taken and diluted into 200 μL of an aqueous solution containing 0.3% formic acid for LC-MS/MS analysis, and 100 μL of the control sample supernatant was taken and diluted into 300 μL of pure water for LC-MS/MS analysis. Calculations were carried out according to the following formulas: […]

| Structure (SMILES) | IC50 [1] [nM] | IC50 [2] [nM] | GI50 [3] [nM] | GI50 [4] [nM] | GI50 [5] [nM] | GI50 [6] [nM] | half-life [7] [min] | microsomal CLint [7] [µL/min/mg] | CLint scaled [7] [mL/min/kg] |
| --- | --- | --- | --- | --- | --- | --- | --- | --- | --- |
| C#Cc1cccc2cc(O)cc(-c3c(F)cc4c(N5CCN(C(=O)C(=C)F)[C@@H](CC#N)C5)nc(OCC56CCCN5CCC6)nc4c3F)c12 [Compound 7A, 2-((2S)-4-(7-(8-ethynyl-3-hydroxynaphth-1-yl)-6,8-difluoro-2-((tetrahydro-1H-pyrrolizin-7a(5H)-yl)methoxy)quinazolin-4-yl)-1-(2-fluoroacryloyl)piperazin-2-yl)acetonitrile] | 0.62 | 0.6 | 5.28 | 16.8 | 34.6 | 9.03 | 38.4 | 36.1 | 32.5 |
| C=C(F)C(=O)N1CCN(c2nc(OCC34CCCN3CCC4)nc3c(F)c(-c4cc(O)cc5cccc(Cl)c45)c(F)cc23)C[C@@H]1CC#N [Compound 22A, 2-((2S)-4-(7-(8-chloro-3-hydroxynaphth-1-yl)-6,8-difluoro-2-((tetrahydro-1H-pyrrolizin-7a(5H)-yl)methoxy)quinazolin-4-yl)-1-(2-fluoroacryloyl)piperazin-2-yl)acetonitrile] | 0.47 | 0.76 | 7.23 | 23.9 | 34.1 | 11.1 | 39.2 | 35.6 | 33 |
| C#Cc1c(F)ccc2cc(O)cc(-c3c(F)cc4c(N5CCN(C(=O)C(=C)F)[C@@H](CC#N)C5)nc(OC[C@@]56CCCN5C[C@H](F)C6)nc4c3F)c12 [Compound 24A, 2-((2S)-4-(7-(8-ethynyl-7-fluoro-3-hydroxynaphth-1-yl)-6,8-difluoro-2-(((2R,7aS)-2-fluorotetrahydro-1H-pyrrolizin-7a(5H)-yl)methoxy)quinazolin-4-yl)-1-(2-fluoroacryloyl)piperazin-2-yl)acetonitrile] | 0.25 | 0.52 | 4 | 7.6 | 5.5 | 4 | 17.1 | 81.3 | 73.2 |

Other lines, results leading:

| IC50 [1] [nM] | IC50 [2] [nM] | GI50 [3] [nM] | GI50 [4] [nM] | GI50 [5] [nM] | GI50 [6] [nM] | half-life [7] [min] | microsomal CLint [7] [µL/min/mg] | CLint scaled [7] [mL/min/kg] | Structure (SMILES) |
| --- | --- | --- | --- | --- | --- | --- | --- | --- | --- |
| 0.24 | 0.58 | 3.44 | 17.8 | 33.3 | 11.6 | 26.7 | 53 | 49.7 | C#Cc1cccc2cc(O)cc(-c3c(F)cc4c(N5CCN(C(=O)C(=C)F)[C@@H](CC#N)C5)nc(OC[C@@]56CCCN5C[C@H](F)C6)nc4c3F)c12 [Compound 8A, 2-((2S)-4-(7-(8-ethynyl-3-hydroxynaphth-1-yl)-6,8-difluoro-2-(((2R,7aS)-2-fluorotetrahydro-1H-pyrrolizin-7a(5H)-yl)methoxy)quinazolin-4-yl)-1-(2-fluoroacryloyl)piperazin-2-yl)acetonitrile] |
| 0.79 | 0.86 | 25.7 | 62.6 | 69.4 | 56.7 | 38.8 | 35.7 | 32.1 | C#Cc1cccc2cccc(-c3ccc4c(N5CCN(C(=O)C(=C)F)[C@@H](CC#N)C5)nc(OCC56CCCN5CCC6)nc4c3F)c12 [Compound 11, (S)-2-(4-(7-(8-ethynylnaphth-1-yl)-8-fluoro-2-((tetrahydro-1H-pyrrolizin-7a(5H)-yl)methoxy)quinazolin-4-yl)-1-(2-fluoroacryloyl)piperazin-2-yl)acetonitrile] |
| 0.66 | 1.02 | 26.2 | 41.6 | 51.4 | 24.4 | 30.9 | 56.2 | 49.6 | C#Cc1c(F)ccc2cc(O)cc(-c3ccc4c(N5CCN(C(=O)C(=C)F)[C@@H](CC#N)C5)nc(OCC56CCCN5CCC6)nc4c3F)c12 [Compound 12, (S)-2-(4-(7-(8-ethynyl-7-fluoro-3-hydroxynaphth-1-yl)-8-fluoro-2-((tetrahydro-1H-pyrrolizin-7a(5H)-yl)methoxy)quinazolin-4-yl)-1-(2-fluoroacryloyl)piperazin-2-yl)acetonitrile] |
| 0.5 | 0.68 | 4.89 | 12.8 | 29.9 | 8.92 | 44.2 | 35.6 | 33 | C#Cc1cccc2cccc(-c3c(F)cc4c(N5CCN(C(=O)C(=C)F)[C@@H](CC#N)C5)nc(OCC56CCCN5CCC6)nc4c3F)c12 [Compound 18B, 2-((2S)-4-(7-(8-ethynylnaphth-1-yl)-6,8-difluoro-2-((tetrahydro-1H-pyrrolizin-7a(5H)-yl)methoxy)quinazolin-4-yl)-1-(2-fluoroacryloyl)piperazin-2-yl)acetonitrile] |
